From patent publication US20170363646A1, “METHOD FOR DETECTING MOLECULES THAT INHIBIT THE INTERACTION OF CD36 PROTEIN WITH AMYLOID BETA” (Instituto de Investigaciones Cientificas y Servicios de …, priority 2015, published 2017)

Experiments:
[1] = biological target: T1, interaction between rCD36 and fAβ1-42 (Homo sapiens, UniProt P16671); experiment: colorimetric rCD36-fAβ1-42 interaction assay on polystyrene plate; assay type: binding; details: added 30 minutes prior to fAβ1-42 and maintained, p<0.05 by t-test, FIG. 7
T1 construct: the extracellular domain of the CD36 protein, corresponding to Gly30-Asn439; 6xHis (C); made in house; host or cells: Escherichia coli BL21 (DE3), pET30-CD36; purified by IMAC under denaturing conditions and renatured in PBS
T1 sequence (P16671 30-439): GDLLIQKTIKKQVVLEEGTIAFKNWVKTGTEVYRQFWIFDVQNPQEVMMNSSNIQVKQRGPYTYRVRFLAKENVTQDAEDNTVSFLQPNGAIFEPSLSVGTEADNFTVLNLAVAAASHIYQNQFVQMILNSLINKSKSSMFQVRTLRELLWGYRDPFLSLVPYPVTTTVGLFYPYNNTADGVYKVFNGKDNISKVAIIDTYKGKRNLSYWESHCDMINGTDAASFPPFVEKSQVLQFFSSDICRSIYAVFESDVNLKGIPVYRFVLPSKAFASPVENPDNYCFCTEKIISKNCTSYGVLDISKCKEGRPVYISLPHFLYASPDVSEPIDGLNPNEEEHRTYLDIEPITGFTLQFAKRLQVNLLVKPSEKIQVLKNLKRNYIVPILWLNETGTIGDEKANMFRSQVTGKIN
Excerpt: The invention consists in the development of a rapid colorimetric procedure that through the adhesion of the recombinant protein CD36 to a polystyrene plate enables the evaluation of molecules that can inhibit the interaction of such protein and the amyloid beta. The process or method of this invention is based on the interaction of A) recombinant extracellular portion of the CD36 protein with B) the Aβ peptide in its fibril state. […] The presence of compounds that inhibit the ligand-receptor interaction in the reaction produces a reduction of the colorimetric signal generated after the addition of the substrate (FIG. 1). The fibrillar Aβ is prepared on the basis of the synthetic peptide incubated at 37° C., in distilled water. The fibrils are prepared by controlling the polymerization of the monomers, which is monitored through the Thioflavin T fluorescent assay (11). […]
Considering that the vast majority of the natural or synthetic compounds that will be tested in the screening phase are diluted in Dimethyl Sulfoxide (DMSO), the tolerance of the assay to this solvent was evaluated. First, the assay sensitivity was evaluated at a concentration of 0.1% DMSO in conjugated serial dilutions where concentrations of rCD36 and fAβ1-42 varied, similar to the description given in example 2 (FIG. 3). […] Later, the tolerance of the assay was evaluated at different doses of DMSO. […]

microglial cell line = details: previously demonstrated (17); cited from earlier work
[2] = biological target: interaction between CD36 and fAβ1-42 (Homo sapiens, UniProt P16671); details: cell-based assay, previously demonstrated (17); cited from earlier work
interaction between CD36 and fAβ1-42, sequence (P16671 whole entry): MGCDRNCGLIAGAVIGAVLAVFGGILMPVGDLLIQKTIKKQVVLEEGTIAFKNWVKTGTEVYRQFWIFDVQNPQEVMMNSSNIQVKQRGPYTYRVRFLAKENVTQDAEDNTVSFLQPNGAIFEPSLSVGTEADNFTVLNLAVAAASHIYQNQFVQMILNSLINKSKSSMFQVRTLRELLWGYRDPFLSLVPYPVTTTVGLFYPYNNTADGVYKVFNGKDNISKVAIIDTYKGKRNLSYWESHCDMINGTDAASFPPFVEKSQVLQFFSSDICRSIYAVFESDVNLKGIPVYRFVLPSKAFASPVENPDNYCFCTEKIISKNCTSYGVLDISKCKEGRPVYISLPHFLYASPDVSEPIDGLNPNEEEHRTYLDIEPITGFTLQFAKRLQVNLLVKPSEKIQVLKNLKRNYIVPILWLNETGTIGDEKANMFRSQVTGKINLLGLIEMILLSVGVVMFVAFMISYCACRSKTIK

decrease of the interaction between rCD36 and fAβ1-42 ([1]; ursolic acid 100 μM): significant decrease | decrease of the interaction between rCD36 and fAβ1-42 ([1]; ursolic acid 200 μM): significant decrease
SMILES: C[C@H]1[C@H](C)CC[C@]2(C(=O)O)CC[C@]3(C)C(=CC[C@@H]4[C@@]5(C)CC[C@H](O)C(C)(C)[C@@H]5CC[C@]43C)[C@H]12 [ursolic acid]
effect on Aβ-induced nitric oxide production (microglial cell line): this inhibition impacts on the Aβ-induced nitric oxide production | inhibition of the interaction between CD36 and fAβ1-42 [2]: inhibits such interaction
